Assay results as given in patent US20080311589A1, “METHOD OF HIGH-THROUGHPUT SCREENING OF MOLECULES AND COMPOUNDS FOR THEIR EFFECTS ON BIOLOGICAL AND CHEMICAL PROCESSES” (priority 1999, published 2008).

Key:
[1] = system: Mv1Lu mink lung epithelial cells; assay: 384 well anti-BrdU cytoblot; format: cell-based; details: 384-well plate; TGF-β 16 hours, then 10 μM BrdU 16 hours
Excerpt: FIG. 1. An immunodetection assay for DNA synthesis in high density arrays of mammalian cells. (a) Cartoon depiction of an anti-BrdU cytoblot. The thymine analog 5-bromodeoxyuridine (BrdU) is incorporated into the DNA of cells that are actively replicating their DNA. The cells are in the well, and BrdU is detected with a two step antibody binding procedure. The second antibody is conjugated to the enzyme horseradish peroxidase. In the presence of the chemiluminescent substrate luminol as well as hydrogen peroxide, light of wavelength 428 nm is generated. The light emission can be detected by exposing the plate to film. (b) A cytoblot can detect TGF-β's ability to prevent BrdU incorporation in mink lung epithelial cells. 2000 Mv1Lu mink lung epithelial cells were seeded in each well of a white, opaque 384 well plate. The cells were seeded in the indicated concentrations of TGF-β in 50 μL of DMEM with 1% fetal bovine serum (FBS), 100 units/mL penicillin G sodium, 100 μg/mL streptomycin sulfate and 100 μM each of the amino acids alanine, aspartic acid, glutamine, glycine, asparagine and proline (referred to throughout as 1% mink medium) and allowed to incubate at 37° C. with 5% CO2. After 16 hours, 5.5 μL of 100 μM BrdU in 1% mink medium was added to each well, for a final concentration of 10 μM BrdU. The cells were incubated at 37° C. with 5% CO2 for an additional 16 hours and then an anti-BrdU cytoblot protocol was performed (see protocol). Wells shown are magnified 4×.
FIG. 2. A cytoblot can detect the ability of numerous antiproliferative agents to inhibit BrdU incorporation. 2000 Mv1Lu mink lung epithelial cells were seeded in each well of a white, opaque 384 well plate. The cells were seeded in 40 μL of 1% mink media and immediately 40 μL of 2× stocks of the reagents shown was added to each well and the cells were allowed to incubate at 37° C. with 5% CO2. After 24 hours, 9 μL of 100 μM BrdU in 1% mink medium was added to each well, for a final concentration of 10 μM BrdU. The cells were incubated at 37° C. with 5% CO2 for an additional 16 hours and then an anti-BrdU cytoblot protocol was performed (see protocol). Wells shown are magnified 2.5×.
The ability of the cytoblot assay to detect changes in DNA synthesis was tested by measuring the incorporation of 5-bromodeoxyuridine (BrdU, Sigma Corporation, St. Louis, Mo., Cat.# B9285) into DNA in the presence or absence of the anti-mitogen transforming growth factor β (TGF-β). Mink lung cells, which are responsive to TGF-β, were seeded into each well of an opaque, white 384-well plate. The cells were subsequently treated with varying concentrations of TGF-β for 16 hours and then with 10 μM BrdU for 16 hours. […] The following protocols provide experimental detail. […]

BS-C-1 cells = assay: fluorescence microscopy and live imaging of BS-C-1 cells; format: cell-based, monkey
Description: We investigated the phenotype of mammalian cells (BS-C-I) treated with the compounds of group III. […] Our examination of the distribution of microtubules, actin, and chromatin in fixed cells by fluorescence microscopy allowed us to divide the small molecules into three classes.
In brief, BSCI cells were seeded on glass coverslips and cultured overnight.
We then asked whether the chromosomes surrounding the monoastral microtubule array maintain microtubule attachment.

[2] = system: Golgi apparatus or lysosomes; assay: distribution of lysosomes and Golgi apparatus; format: cell-based; details: concentrations that caused strong spindle defects; interphase cells
Excerpt: We investigated the phenotype of mammalian cells (BS-C-I) treated with the compounds of group III. Live images were taken as described previously (Cramer et al., Curr. Op. Cell Biol. 6:82, 1994); for immunofluoresence, the cells were stained with a Golgi-specific antibody (anti-Golgi 58K protein antibodies [Sigma]) or with anti-α-tubulin antibodies (DM1 A [Sigma]); actin was visualized using TRIC-conjugated phalliodin (Sigma); lysosomes were stained with LysoTracker (Molecular Probes; Palmiter et al., EMBO J. 15:1784, 1996). Our examination of the distribution of microtubules, actin, and chromatin in fixed cells by fluorescence microscopy allowed us to divide the small molecules into three classes. Twenty-seven had no observable effect on the microtubule and actin cytoskeleton or on cheomosome distribution. Consistent with the data from the cytoblot assay we observed an increase in the number of normal appearing mitotic cells. These compounds may increase the mitotic index by perturbing the function of proteins that regulate progression through the cell cycle, e.g., anaphase regulators, rather than structural or mechanochemical components of the mitotic spindle. It is also possible that these compounds have a subtle effect on cytoskeletal dynamics or chromosome organization that may not be observable in fixed cells. […]

Substance	BrdU incorporation [1]	mitotic cells displaying the monoastral phenotype (BS-C-1 cells)	microtubule, spindle and chromosome phenotype (BS-C-1 cells; BS-C-1 cells, 1A at 40 μM for 4 hours)	chromosome attachment to microtubules (BS-C-1 cells; live images of BS-C-1 cells)	localization and organization of Golgi apparatus or lysosomes [2]
TGF-β: anti-mitogen transforming growth factor β, multifunctional polypeptide signaling factor	effectively prevented BrdU incorporation				
monastrol		Over 90%	the bipolar spindle was replaced with a monoastral microtubule array surrounded by a ring of chromosomes	does not inhibit chromosome attachment to microtubules	did not affect localization and organization of the Golgi apparatus or lysosomes in interphase cells
